Where a name gives a salt, the structure may show the parent alone.

One test relates to hPSC-SCs.
Conditions: not given
The compound `Cl.O=c1[nH]oc2c1CCNC2` [THIP Hydrochloride] displayed a z.score.t of 0.9162. The same measure, in the same setting: the same measure for `CCC(=O)O[C@H]1CC[C@H]2[C@@H]3CCC4=CC(=O)CC[C@]4(C)[C@H]3CC[C@]12C` [Testosterone propionate]: −1.014. `CCCCNc1ccc(C(=O)OCCN(C)C)cc1.Cl` [TetracaÂ<ne hydrochloride]: the z.score.t is −0.2276. Same read-out and setting: the same measure for `Cn1c(=O)c2[nH]cnc2n(C)c1=O.O` [Theophylline monohydrate]: −1.123; for `COc1c(O[C@@H]2O[C@H](CO)[C@@H](O)[C@H](O)[C@H]2O)cc2c(c1OC)-c1ccc(SC)c(=O)cc1[C@@H](NC(C)=O)CC2` [Thiocolchicoside]: 1.11.

For the compound `C=C(NC(=O)C(=C)NC(=O)c1csc(C2=N[C@@H]3c4csc(n4)[C@H]4NC(=O)c5csc(n5)[C@H]([C@](C)(O)[C@@H](C)O)NC(=O)[C@H]5CSC(=N5)/C(=C/C)NC(=O)[C@H]([C@@H](C)O)NC(=O)c5csc(n5)[C@]3(CC2)NC(=O)[C@H](C)NC(=O)C(=C)NC(=O)[C@H](C)NC(=O)[C@H]([C@@H](C)CC)N[C@@H]2C=Cc3c([C@H](C)O)cc(nc3[C@H]2O)C(=O)O[C@@H]4C)n1)C(N)=O` [Thiostrepton], the z.score.t amounted to 0.6013. Still for that read-out and setting: the same measure for `N[C@@H](Cc1cc(I)c(Oc2cc(I)c(O)c(I)c2)c(I)c1)C(=O)O` [Thyroxine (L)]: −0.8478; for `CCNC1(c2cccs2)CCCCC1=O.Cl` (stereo not shown) [Tiletamine hydrochloride]: 1.958; for `C[C@H]1CC[C@]2(NC1)O[C@H]1C[C@H]3[C@@H]4CC[C@H]5C[C@@H](O)CC[C@]5(C)[C@H]4CC[C@]3(C)[C@H]1[C@@H]2C` [Tomatidine]: −0.2904.

Turning to `C[C@H]1CC[C@]2(NC1)O[C@H]1C[C@H]3[C@@H]4CC[C@H]5C[C@@H](O[C@@H]6O[C@H](CO)[C@H](O[C@@H]7O[C@H](CO)[C@@H](O)[C@H](O[C@@H]8OC[C@@H](O)[C@H](O)[C@H]8O)[C@H]7O[C@@H]7O[C@H](CO)[C@@H](O)[C@H](O)[C@H]7O)[C@H](O)[C@H]6O)CC[C@]5(C)[C@H]4CC[C@]3(C)[C@H]1[C@@H]2C` [Tomatine], the z.score.t was −1.873. Same read-out and setting: as for `C(#CCN1CCCC1)CN1CCCC1.Cl.Cl` [Tremorine dihydrochloride], the figure is −0.4139. Still for that read-out and setting: the same measure for `COP(=O)(OC)C(O)C(Cl)(Cl)Cl` (stereo not shown) [Trichlorfon]: −0.04944.

Staying with this test, now noted: HTS viability of hPSC-SCs in the presence of 30 mM glucose; Prestwick library; Table S4.
On to `CCOC(=O)Oc1c(OC)cc(C(=O)O[C@@H]2C[C@@H]3CN4CCc5c([nH]c6cc(OC)ccc56)[C@H]4C[C@@H]3[C@H](C(=O)OC)[C@H]2OC)cc1OC` [Syrosingopine], for which the z.score.t is reported as −0.4543. On to `Nc1c2c(nc3ccccc13)CCCC2` [Tacrine hydrochloride hydrate], for which the z.score.t is listed as −0.7049. On to `CC1(C)S[C@@H]2[C@H](NC(=O)[C@H](N)c3ccccc3)C(=O)N2[C@H]1C(=O)OC1OC(=O)c2ccccc21` (stereo partly shown) [Talampicillin hydrochloride], for which the z.score.t is recorded as −0.8111. On the same count and under the same terms, the same measure for `CC/C(=C(\c1ccccc1)c1ccc(OCCN(C)C)cc1)c1ccccc1` [Tamoxifen citrate]: −1.827; for `Cc1scc2c1N(C(=O)CN1CCN(C)CC1)c1ccccc1NC2=O` [Telenzepine dihydrochloride]: 0.5452; for `CN1C(C(=O)Nc2ccccn2)=C(O)c2sccc2S1(=O)=O` [Tenoxicam]: 1.659.

With `COc1cc2nc(N3CCN(C(=O)C4CCCO4)CC3)nc(N)c2cc1OC` (stereo not shown) [Terazosin hydrochloride], the z.score.t came to 0.2582. On the same count and under the same terms, the same measure for `CC(C)N1CCN(c2ccc(OCC3COC(Cn4cncn4)(c4ccc(Cl)cc4Cl)O3)cc2)CC1` (stereo not shown) [Terconazole]: −0.07901; for `CC(C)(C)c1ccc(C(O)CCCN2CCC(C(O)(c3ccccc3)c3ccccc3)CC2)cc1` (stereo not shown) [Terfenadine]: −0.8513. In the case of `CN(C)[C@@H]1C(O)=C(C(N)=O)C(=O)[C@@]2(O)C(O)=C3C(=O)c4c(O)cccc4[C@@](C)(O)[C@H]3C[C@@H]12` [Tetracycline hydrochloride], the z.score.t is reported as −0.2425.

Turning to `O.O=C1C(O)=C(O)C(=O)C(O)=C1O` [Tetrahydroxy-1,4-quinone monohydrate], the z.score.t was 1.323. Same read-out and setting: the same measure for `c1ccc2c(c1)CCCC2C1=NCCN1` (stereo not shown) [Tetrahydrozoline hydrochloride]: 0.81; for `c1ccc(C2CN3CCSC3=N2)cc1` (stereo not shown) [Tetramisole hydrochloride]: −0.3319. `COc1ccc2cc1Oc1ccc(cc1)C[C@H]1c3cc(c(OC)cc3CCN1C)Oc1c(OC)c(OC)cc3c1[C@H](C2)N(C)CC3` [Tetrandrine]: the z.score.t is −0.4538. Consider `O=C1CCC(N2C(=O)c3ccccc3C2=O)C(=O)N1` (stereo not shown) [Thalidomide], for which the z.score.t is recorded as −1.821. Take `Cn1cnc2c1c(=O)[nH]c(=O)n2C` [Theobromine]: the z.score.t is on record as −1.169. On the same count and under the same terms, the same measure for `Cc1ncc(C[n+]2csc(CCO)c2C)c(N)n1` [Thiamine hydrochloride]: −0.865. Take `CS(=O)(=O)c1ccc([C@@H](O)[C@@H](CO)NC(=O)C(Cl)Cl)cc1` [Thiamphenicol]: the z.score.t was determined as 1.099. Turning to `S=C(NC1CCCCC1)N1CCC(c2cnc[nH]2)CC1` [Thioperamide maleate], the z.score.t worked out at 0.8825. Still for that read-out and setting: the same measure for `CSc1ccc2c(c1)N(CCC1CCCCN1C)c1ccccc1S2` (stereo not shown) [Thioridazine hydrochloride]: −1.898; for `O=C(O)CNC(=O)C(CS)Cc1ccccc1` (stereo not shown) [Thiorphan]: 0.563. Same read-out and setting: the same measure for `CCCCCCCCCCCCCCCC[N+](C)(C)CCN(Cc1ccc(OC)cc1)c1ncccn1` [Thonzonium bromide]: −1.884.

`c1ccc2[nH]c(-c3cscn3)nc2c1` [Tiabendazole]: the z.score.t turned out to be 1.638.

As to `CCN(CC)CCNC(=O)c1cc(S(C)(=O)=O)ccc1OC` [Tiapride hydrochloride], the z.score.t is 0.5452. `CC(C(=O)O)c1ccc(C(=O)c2ccccc2)s1` (stereo not shown) [Tiaprofenic acid]: the z.score.t was determined as 0.04918. As for `CC1(C)S[C@@H]2[C@H](NC(=O)[C@H](C(=O)O)c3ccsc3)C(=O)N2[C@H]1C(=O)O` [Ticarcillin sodium], the z.score.t is recorded as −0.6389. Still for that read-out and setting: the same measure for `Clc1ccccc1CN1CCc2sccc2C1` [Ticlopidine hydrochloride]: 0.7034; for `CCS(=O)(=O)CCn1c([N+](=O)[O-])cnc1C` [Tinidazole]: 1.624.

Consider `NC[C@H]1O[C@H](O[C@H]2[C@H](O)[C@@H](O[C@H]3O[C@H](CO)[C@@H](O)[C@H](N)[C@H]3O)[C@H](N)C[C@@H]2N)[C@H](N)C[C@@H]1O` [Tobramycin], for which the z.score.t is −0.3936.

As to `Cc1cccc(C)c1NC(=O)C(C)N` (stereo not shown) [Tocainide hydrochloride], the z.score.t was found to be 0.8938. As to `Cc1c(C)c2c(c(C)c1O)CC[C@@](C)(CCC[C@H](C)CCC[C@H](C)CCCC(C)C)O2` [Tocopherol (R,S)], the z.score.t is given as −0.7233.

As for `CCOC(=O)NNc1nncc2ccccc12` [Todralazine hydrochloride], the z.score.t is listed as −0.4444. Still for that read-out and setting: as for `Cc1ccc(S(=O)(=O)NC(=O)NN2CCCCCC2)cc1` [Tolazamide], the figure is 0.1767; as for `c1ccc(CC2=NCCN2)cc1` [Tolazoline hydrochloride], 1.268; as for `Cc1c(Cl)cccc1Nc1ccccc1C(=O)O` [Tolfenamic acid], −0.528. Same read-out and setting: the same measure for `Cc1ccc(C(=O)c2ccc(CC(=O)O)n2C)cc1` [Tolmetin sodium salt dihydrate]: −0.05622; for `Cc1cccc(N(C)C(=S)Oc2ccc3ccccc3c2)c1` [Tolnaftate]: 0.378; for `Cc1cccc(Nc2ccncc2S(=O)(=O)NC(=O)NC(C)C)c1` [Torsemide]: 0.2395. Consider `CCCCNc1c(C(=O)OCC)c(C)nc2c1cnn2CC` [Tracazolate hydrochloride], for which the z.score.t is −0.9487.

With `NC[C@H]1CC[C@H](C(=O)O)CC1` [Tranexamic acid], the z.score.t is 1.088. Same read-out and setting: the same measure for `N[C@@H]1C[C@H]1c1ccccc1` [Tranylcypromine hydrochloride]: 0.08508; for `O=c1n(CCCN2CCN(c3cccc(Cl)c3)CC2)nc2ccccn12` [Trazodone hydrochloride]: 0.4346; for `C[C@]12C=CC(=O)C=C1CC[C@H]1[C@@H]3C[C@@H](O)[C@](O)(C(=O)CO)[C@@]3(C)C[C@H](O)[C@@]12F` [Triamcinolone]: 2.024. The same measure, in the same setting: the same measure for `Nc1nc(N)c2nc(-c3ccccc3)c(N)nc2n1` [Triamterene]: 0.4903. Turning to `CCOC1O[C@H]([C@@H](COCc2ccccc2)OCc2ccccc2)[C@H](OCc2ccccc2)[C@H]1O` (stereo partly shown) [Tribenoside], the z.score.t is on record as −1.558. On the same count and under the same terms, the same measure for `NS(=O)(=O)c1cc2c(cc1Cl)NC(C(Cl)Cl)NS2(=O)=O` (stereo not shown) [Trichlormethiazide]: −0.03362; for `CC[N+](CC)(CC)CCC(O)(c1ccccc1)C1CCCCC1.[Cl-]` (stereo not shown) [Tridihexethyl chloride]: −1.558. Still for that read-out and setting: the same measure for `CN1CCN(CCCN2c3ccccc3Sc3ccc(C(F)(F)F)cc32)CC1` [Trifluoperazine dihydrochloride]: −1.866; for `CN(C)CCCN1c2ccccc2Sc2ccc(C(F)(F)F)cc21` [Triflupromazine hydrochloride]: −1.512. Consider `O=c1[nH]c(=O)n([C@H]2C[C@H](O)[C@@H](CO)O2)cc1C(F)(F)F` [Trifluridine], for which the z.score.t is listed as −0.7873. The same measure, in the same setting: as for `CC(=O)Oc1cc(C(F)(F)F)ccc1C(=O)O` [Triflusal], the figure is 1.139.

Consider `C[n+]1cccc(C(=O)[O-])c1` [Trigonelline], for which the z.score.t stood at 0.9213. The same measure, in the same setting: as for `Cl.OC(CCN1CCCCC1)(c1ccccc1)C1CCCCC1` (stereo not shown) [Trihexyphenidyl-D, L Hydrochloride], the figure is −1.107; as for `COc1ccc(CN2CCNCC2)c(OC)c1OC` [Trimetazidine dihydrochloride], 0.2189. Same read-out and setting: the same measure for `CN1C(=O)OC(C)(C)C1=O` [Trimethadione]: 1.08.

Values taken from US20260053861A1, “CELL COMPOSITIONS AND METHODS OF USING THE SAME” (THE REGENTS OF THE UNIVERSITY OF CALIFORNIA, priority 2022, published 2026).
